From US20240150334A1, “HSD17B13 INHIBITORS AND/OR DEGRADERS” (Pfizer Inc., priority 2022, published 2024) come the findings set out here.

In one test the target is wild type human HSD17B13 (Homo sapiens (Human), UniProt Q7Z5P4). The test is described as follows: HEK_Beta-Est LCMS_IC50_Tekcel, whole-cell HEK-HSD17B13 inhibition assay, estrone production by LCMS. The test is classed as cell-based. Particulars: geometric mean, HEK cells stably expressing wild type human HSD17B13, 25 μM FAC beta-estradiol, read-out: HEK_Beta-Est LCMS_IC50—Tekcel GMean IC50. In short, it runs like this:
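HEK cells expressing wild-type human HSD17B13 were preincubated with compound for 1 hour at 37° C, then the beta-estradiol/NAD+ reaction ran for 2 hours at 37° C. Estrone formed was quantified by LCMS as product area ratio and normalized to uninhibited vehicle-control wells.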

For the next test, the target named is HSD17B13 enzyme (Homo sapiens (Human), UniProt Q7Z5P4). The test is described as follows: hHSD17B13 IC50 Assay (FAC beta-estradiol), purified protein enzyme activity assay with NAD(P)H-Glo luciferase readout. The following applies: geometric mean, 12 μM FAC beta-estradiol, 500 μM NAD+, read-out: hHSD17B13_IC50 GMean IC50. The test is classed as biochemical. In outline:
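Purified human HSD17B13 (30 nM FAC) incubated with compound, beta-estradiol and NAD+ for 2 h at room temperature in the dark. NADH formation was detected by NAD(P)H-Glo luminescence after 1 h. RLUs normalized to uninhibited enzyme (vehicle) as zero effect.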

Structures can show the parent of a compound that is named as a salt. Where only a bound is given, the exact number is not on record here.

Sequence of HSD17B13 enzyme (Q7Z5P4 20-300): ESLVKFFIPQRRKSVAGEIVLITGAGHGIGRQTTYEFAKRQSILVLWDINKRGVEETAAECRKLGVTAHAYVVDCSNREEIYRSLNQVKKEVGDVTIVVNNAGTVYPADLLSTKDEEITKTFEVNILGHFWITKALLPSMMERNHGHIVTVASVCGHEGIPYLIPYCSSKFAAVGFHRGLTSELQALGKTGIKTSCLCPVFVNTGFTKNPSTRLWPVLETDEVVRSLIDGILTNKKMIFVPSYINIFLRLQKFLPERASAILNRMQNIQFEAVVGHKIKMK
Sequence of wild type human HSD17B13 (Q7Z5P4 20-300): as above

Consider `O=C(NC[C@H]1CC[C@H](n2cc3ccc(-c4cnccn4)cc3n2)CC1)c1cc(F)c(O)c(F)c1F` [Example 28, 2,3,5-trifluoro-4-hydroxy-N-({(1r,4r)-4-[6-(pyrazin-2-yl)-2H-indazol-2-yl]cyclohexyl}methyl)benzamide], for which the figures for the IC50 on wild type human HSD17B13 and on HSD17B13 enzyme were 170 nM and 8.7 nM, respectively.
As for `O=C(NC[C@]12CC[C@](c3nc(-c4cnc(C(F)(F)F)cn4)no3)(CC1)CC2)c1ccc(O)c(F)c1F` [Example 177, 2,3-difluoro-4-hydroxy-N-[(4-{3-[5-(trifluoromethyl)pyrazin-2-yl]-1,2,4-oxadiazol-5-yl}bicyclo[2.2.2]octan-1-yl)methyl]benzamide], the IC50 at wild type human HSD17B13 turned out to be 370 nM; at HSD17B13 enzyme, 17 nM.
The corresponding values for `Cn1nccc1-c1ccc2cn([C@H]3CC[C@H](CNC(=O)c4cc(F)c(O)c(F)c4)CC3)nc2c1` [Example 62, 3,5-difluoro-4-hydroxy-N-({(1r,4r)-4-[6-(1-methyl-1H-pyrazol-5-yl)-2H-indazol-2-yl]cyclohexyl}methyl) benzamide] are 350 nM and 8.7 nM.
The corresponding values for `O=C(NC[C@]12CC[C@](c3nc(-c4cnc(C(F)(F)F)cn4)no3)(CC1)CC2)c1cc(F)c(O)c(F)c1` [Example 191, 3,5-difluoro-4-hydroxy-N-[(4-{3-[5-(trifluoromethyl)pyrazin-2-yl]-1,2,4-oxadiazol-5-yl}bicyclo[2.2.2]octan-1-yl)methyl]benzamide] are 120 nM and 9.7 nM.
In the case of `Cc1nn(C)cc1-c1ccc2cn([C@H]3CC[C@H](CNC(=O)c4cc(F)c(O)c(F)c4)CC3)nc2c1` [Example 50, N-({(1r,4r)-4-[6-(1,3-dimethyl-1H-pyrazol-4-yl)-2H-indazol-2-yl]cyclohexyl}methyl)-3,5-difluoro-4-hydroxybenzamide], the IC50 came out at 250 nM on wild type human HSD17B13 and 11 nM at HSD17B13 enzyme.
On to `COc1cccc2nn([C@H]3CC[C@H](CNC(=O)c4cc(F)c(O)c(F)c4)CC3)cc12` [Example 122, 3,5-difluoro-4-hydroxy-N-{[(1r,4r)-4-(4-methoxy-2H-indazol-2-yl)cyclohexyl]methyl} benzamide], for which the half-inhibitory concentration (IC50) at wild type human HSD17B13 was 310 nM; at HSD17B13 enzyme it was 14 nM.
With `O=C(NC[C@]12CC[C@](n3cc4cc(C(F)(F)F)ccc4n3)(CC1)CC2)c1cc(F)c(O)c(F)c1` [Example 125, 3,5-difluoro-4-hydroxy-N-({4-[5-(trifluoromethyl)-2H-indazol-2-yl]bicyclo[2.2.2]octan-1-yl}methyl)benzamide], the values for the IC50 at wild type human HSD17B13 and on HSD17B13 enzyme were 250 nM and 17 nM, respectively.
The like results for `Cn1ncc(-c2ccc3cn([C@H]4CC[C@H](CNC(=O)c5cc(F)c(O)c(F)c5)CC4)nc3c2)c1C(F)(F)F` [Example 46, 3,5-difluoro-4-hydroxy-N-{[(1r,4r)-4-{6-[1-methyl-5-(trifluoro-methyl)-1H-pyrazol-4-yl]-2H-indazol-2-yl}cyclohexyl]methyl}benzamide] were, in that order, 450 nM and 9.5 nM.
Take `O=C(NC[C@H]1CC[C@H](n2cc3cc(-c4cccnc4)ncc3n2)CC1)c1cc(F)c(O)c(F)c1` [Example 199, 3,5-difluoro-4-hydroxy-N-({(1r,4r)-4-[5-(pyridin-3-yl)-2H-pyrazolo[3,4-c]pyridin-2-yl]cyclohexyl}methyl) benzamide]: the figures for the IC50 on wild type human HSD17B13 and on HSD17B13 enzyme were 370 nM and 8.8 nM, respectively.
Regarding `Cn1cc(-c2cc3cn([C@H]4CC[C@H](CNC(=O)c5cc(F)c(O)c(F)c5)CC4)nc3cn2)cn1` [Example 200, 3,5-difluoro-4-hydroxy-N-({(1r,4r)-4-[5-(1-methyl-1H-pyrazol-4-yl)-2H-pyrazolo[3,4-c]pyridin-2-yl]cyclohexyl}methyl) benzamide], the values for the half-maximal inhibitory concentration (IC50) at wild type human HSD17B13 and on HSD17B13 enzyme were 350 nM and 10 nM, respectively.
The like results for `N#Cc1ccc2cn([C@H]3CC[C@H](CNC(=O)c4cc(F)c(O)c(F)c4)CC3)nc2c1` [Example 134, N-{[(1r,4r)-4-(6-cyano-2H-indazol-2-yl)cyclohexyl]methyl}-3,5-difluoro-4-hydroxybenzamide, ammonium salt] were, in that order, 470 nM and 32 nM.
Turning to `COc1ccc(-c2noc([C@]34CC[C@](CNC(=O)c5cc(F)c(O)c(F)c5F)(CC3)CC4)n2)nn1` [Example 15, 2,3,5-Trifluoro-4-hydroxy-N-({4-[3-(6-methoxypyridazin-3-yl)-1,2,4-oxadiazol-5-yl]bicyclo[2.2.2]octan-1-yl}methyl)benzamide], the concentration for half-maximal inhibition (IC50) at wild type human HSD17B13 is 220 nM; at HSD17B13 enzyme it was 7.1 nM.
The corresponding values for `O=C(NC[C@H]1CC[C@H](n2cc3ccc(-c4ncccn4)cc3n2)CC1)c1cc(F)c(O)c(F)c1` [Example 24, 3,5-difluoro-4-hydroxy-N-({(1r,4r)-4-[6-(pyrimidin-2-yl)-2H-indazol-2-yl]cyclohexyl}methyl) benzamide] are 120 nM and 14 nM.
Consider `Cn1cc(-c2ccc3cn([C@H]4CC[C@H](CNC(=O)c5cc(F)c(O)c(F)c5)CC4)nc3c2)c(F)n1` [Example 51, 3,5-difluoro-N-({(1r,4r)-4-[6-(3-fluoro-1-methyl-1H-pyrazol-4-yl)-2H-indazol-2-yl]cyclohexyl}methyl)-4-hydroxybenzamide], for which the IC50 turned out to be 120 nM on wild type human HSD17B13 and 6.5 nM on HSD17B13 enzyme.
With `CN1CCN(c2ccc3cn([C@H]4CC[C@H](CNC(=O)c5cc(F)c(O)c(F)c5)CC4)nc3c2)CC1` [Example 136, 3,5-difluoro-4-hydroxy-N-({(1r,4r)-4-[6-(4-methyl-piperazin-1-yl)-2H-indazol-2-yl]cyclohexyl}methyl) benzamide, ammonium salt], the 50% inhibitory concentration (IC50) at wild type human HSD17B13 was 300 nM; at HSD17B13 enzyme, 15 nM.
The corresponding values for `COc1ccc(-c2noc([C@]34CC[C@](CNC(=O)c5cc(F)c(O)c(F)c5)(CC3)CC4)n2)nn1` [Example 124, 3,5-difluoro-4-hydroxy-N-({4-[3-(6-methoxypyridazin-3-yl)-1,2,4-oxadiazol-5-yl]bicyclo [2.2.2]octan-1-yl}methyl)benzamide] are 160 nM and 7.1 nM.
In the case of `O=C(NC[C@H]1CC[C@H](n2cc3ccc(-c4ncc(C5CC5)cn4)cc3n2)CC1)c1cc(F)c(O)c(F)c1` [Example 54, N-({(1r,4r)-4-[6-(5-cyclopropylpyrimidin-2-yl)-2H-indazol-2-yl]cyclohexyl}methyl)-3,5-difluoro-4-hydroxybenzamide], the IC50 was found to be 230 nM on wild type human HSD17B13 and 9.5 nM at HSD17B13 enzyme.
Turning to `Cc1ccc2cn([C@H]3CC[C@H](CNC(=O)c4cc(F)c(O)c(F)c4)CC3)nc2c1` [Example 130, 3,5-difluoro-4-hydroxy-N-{[(1r,4r)-4-(6-methyl-2H-indazol-2-yl)cyclohexyl]methyl}benzamide], the half-inhibitory concentration (IC50) turned out to be 330 nM at wild type human HSD17B13 and 27 nM on HSD17B13 enzyme.
In the case of `CCn1cc(-c2ccc3cn([C@H]4CC[C@H](CNC(=O)c5cc(F)c(O)c(F)c5F)CC4)nc3c2)cn1` [Example 150, N-({(1r,4r)-4-[6-(1-ethyl-1H-pyrazol-4-yl)-2H-indazol-2-yl]cyclohexyl}methyl)-2,3,5-trifluoro-4-hydroxybenzamide, trifluoroacetate salt], the IC50 at wild type human HSD17B13 was 120 nM; on HSD17B13 enzyme, 4.8 nM.
Regarding `Cc1ccc(-c2noc([C@]34CC[C@](CNC(=O)c5cc(F)c(O)c(F)c5)(CC3)CC4)n2)nn1` [Example 123, 3,5-difluoro-4-hydroxy-N-({4-[3-(6-methylpyridazin-3-yl)-1,2,4-oxadiazol-5-yl]bicyclo[2.2.2]octan-1-yl}methyl)benzamide], the concentration for half-maximal inhibition (IC50) on wild type human HSD17B13 is 460 nM; on HSD17B13 enzyme, 10 nM.
For `O=C(NC[C@H]1CC[C@H](n2cc3ccc(-c4ccccn4)cc3n2)CC1)c1cc(F)c(O)c(F)c1` [Example 75, 3,5-difluoro-4-hydroxy-N-({(1r,4r)-4-[6-(pyridin-2-yl)-2H-indazol-2-yl]cyclohexyl}methyl)benzamide], the half-maximal inhibitory concentration (IC50) at wild type human HSD17B13 was 210 nM; at HSD17B13 enzyme it was 19 nM.
As for `CCn1cc(-c2ccc3cn([C@H]4CC[C@H](CNC(=O)c5cc(F)c(O)c(F)c5)CC4)nc3c2)cn1` [Example 47, N-({(1r,4r)-4-[6-(1-ethyl-1H-pyrazol-4-yl)-2H-indazol-2-yl]cyclohexyl}methyl)-3,5-difluoro-4-hydroxybenzamide], the half-inhibitory concentration (IC50) on wild type human HSD17B13 was 110 nM; on HSD17B13 enzyme, below 4.4 nM.
Take `O=C(NC[C@H]1CC[C@H](c2nc(-c3ncc(C(F)(F)F)cn3)no2)CC1)c1cc(F)c(O)c(F)c1` [Example 4, 3,5-Difluoro-4-hydroxy-N-{[(1r,4r)-4-{3-[5-(trifluoromethyl)pyrimidin-2-yl]-1,2,4-oxadiazol-5-yl}cyclohexyl]methyl}benzamide]: the half-inhibitory concentration (IC50) amounted to 290 nM on wild type human HSD17B13 and 5.5 nM on HSD17B13 enzyme.
As to `O=C(NC[C@H]1CC[C@H](n2cc3ccc(-c4cscn4)cc3n2)CC1)c1cc(F)c(O)c(F)c1` [Example 69, 3,5-difluoro-4-hydroxy-N-({(1r,4r)-4-[6-(1,3-thiazol-4-yl)-2H-indazol-2-yl]cyclohexyl}methyl) benzamide], the IC50 at wild type human HSD17B13 is 130 nM; on HSD17B13 enzyme, 8.4 nM.
As for `O=C(NC[C@H]1CC[C@H](n2cc3cc(C(F)(F)F)ccc3n2)CC1)c1cc(F)c(O)cc1F` [Example 183, 2,5-difluoro-4-hydroxy-N-({(1r,4r)-4-[5-(trifluoromethyl)-2H-indazol-2-yl]cyclohexyl}methyl)benzamide], the results for the IC50 on wild type human HSD17B13 and on HSD17B13 enzyme were 450 nM and 10 nM, respectively.

The term IC50 denotes the midpoint of a concentration-inhibition curve.
